Experiments:
[1] = biological target: human CYP4F2 (Homo sapiens (Human), UniProt P78329); assay: Inhibition test against 20-HETE producing enzyme CYP4F2 (luciferine derivative, luminescence); format: biochemical
How it was run: (§1)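 E. coli membranes (100 μg/mL protein) expressing human enzyme, room temperature 60 min, luciferin-derivative luminescence; IC50 from % inhibition. CYP4F2: 50 mM KPO4 pH 7.4, 2.5 μM substrate, 1 mM NADPH. CYP4A11: 100 mM Tris-HCl pH 7.5, 60 μM substrate, NADP+/glucose 6-phosphate/G6PDH regenerating system, 3.3 mM MgCl2.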

[2] = biological target: human CYP4A11 (Homo sapiens (Human), UniProt Q02928); assay: Inhibition test against 20-HETE producing enzyme CYP4A11 (luciferine derivative, luminescence); format: biochemical
Chain of human CYP4A11 (Q02928 5-519): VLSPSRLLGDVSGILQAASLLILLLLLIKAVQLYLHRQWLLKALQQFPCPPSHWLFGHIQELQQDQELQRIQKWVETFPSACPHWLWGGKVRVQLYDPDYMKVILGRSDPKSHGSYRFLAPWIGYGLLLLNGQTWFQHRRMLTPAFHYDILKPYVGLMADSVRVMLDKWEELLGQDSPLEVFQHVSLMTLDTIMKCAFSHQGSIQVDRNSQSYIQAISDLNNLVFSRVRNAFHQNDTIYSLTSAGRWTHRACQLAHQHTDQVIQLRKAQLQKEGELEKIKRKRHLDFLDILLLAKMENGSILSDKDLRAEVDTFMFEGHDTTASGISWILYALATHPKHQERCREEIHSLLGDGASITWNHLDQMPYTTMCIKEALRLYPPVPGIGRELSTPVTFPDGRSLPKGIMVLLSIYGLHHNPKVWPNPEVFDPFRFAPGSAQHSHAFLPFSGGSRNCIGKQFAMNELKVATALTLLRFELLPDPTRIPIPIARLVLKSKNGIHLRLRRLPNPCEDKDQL
How it was run: as §1

[3] = human CYP4F2, luciferine derivative, luminescence
[4] = human CYP4A11, luciferine derivative, luminescence
[5] = E. coli membrane fraction expressing human CYP4F2, 2.5 μM luciferine derivative, room temperature 60 minutes
[6] = E. coli membrane fraction expressing human CYP4A11, 60 μM luciferine derivative, room temperature 60 minutes

Chain of human CYP4F2 (P78329 5-520): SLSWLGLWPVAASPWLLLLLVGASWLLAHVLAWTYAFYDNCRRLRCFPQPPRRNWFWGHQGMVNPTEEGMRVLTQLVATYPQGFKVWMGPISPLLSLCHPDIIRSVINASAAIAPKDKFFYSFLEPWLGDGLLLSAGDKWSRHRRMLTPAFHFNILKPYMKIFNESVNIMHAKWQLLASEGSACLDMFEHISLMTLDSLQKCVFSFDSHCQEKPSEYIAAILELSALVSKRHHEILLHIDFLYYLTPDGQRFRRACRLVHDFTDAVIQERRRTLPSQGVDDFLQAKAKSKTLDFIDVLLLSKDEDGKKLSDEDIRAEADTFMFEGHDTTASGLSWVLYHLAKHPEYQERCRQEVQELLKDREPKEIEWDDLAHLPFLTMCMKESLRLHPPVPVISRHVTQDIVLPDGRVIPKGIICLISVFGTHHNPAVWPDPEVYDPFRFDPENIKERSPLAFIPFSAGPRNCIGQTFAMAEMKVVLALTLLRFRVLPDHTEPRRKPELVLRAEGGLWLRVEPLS

Row | SMILES | IC50 [1, 3] [µM] | IC50 [2, 4] [µM] | IC50 [1, 5] [µM] | IC50 [2, 6] [µM]
1 | CC(C)(Oc1cccc(CCOc2ccc(-c3ccn[nH]3)nc2)c1)C(=O)O [Example 71-31] | 15 | 0.3 | – | –
2 | Cc1cc(COc2ccc(-c3ccn[nH]3)nc2)ccc1C(=O)O [Example 25-1, 2-Methyl-4-[[6-(1H-pyrazol-5-yl)-3-pyridinyl]oxymethyl]benzoic Acid] | – | – | 16 | 0.033
3 | CS(=O)(=O)c1cc(O)cc(COc2ccc(-c3ccn[nH]3)nc2)c1 [Example 20-2] | – | – | 0.069 | 0.21
4 | O=C(O)CCc1cccc(CCCOc2ccc(-c3ccn[nH]3)nc2)c1 [Example 30-3, 3-[3-[3-[[6-(1H-Pyrazol-5-yl)-3-pyridinyl]oxy]propyl]phenyl]propanoic Acid] | – | – | 0.37 | 0.15
5 | O=C(O)[C@H]1COc2ccc(COc3ccc(-c4ccn[nH]4)nc3)cc2C1 [Example 69-2-2] | 1.1 | 0.036 | – | –
6 | O=C(O)CCCc1cccc(COc2ccc(-c3ccn[nH]3)nc2)c1 [Example 30-1, 4-[3-[[6-(1H-Pyrazol-5-yl)-3-pyridinyl]oxymethyl]phenyl]butanoic Acid] | – | – | 1.4 | 0.017
7 | NS(=O)(=O)c1ccc(C(=O)N2CCC[C@@H](COc3ccc(-c4ccn[nH]4)nc3)C2)cc1 [Example 41-2] | – | – | 0.45 | 0.33
8 | O=C(O)CCc1cccc(CCOc2ccc(-c3ccn[nH]3)nc2)c1 [Example 1-16] | – | – | 1.1 | 0.036
9 | CC(C)(Oc1cccc(CCCOc2ccc(-c3ccn[nH]3)nc2)n1)C(=O)O [Example 71-40] | 8.7 | 0.45 | – | –
10 | O=C(O)CCCc1ccc(CCCOc2ccc(-c3ccn[nH]3)nc2)cc1 [Example 30-5] | – | – | 0.074 | 0.42
11 | O=C(O)CCCc1cccc(CCOc2ccc(-c3ccn[nH]3)nc2)c1 [Example 4-1, 4-[3-[2-[[6-(1H-Pyrazol-5-yl)-3-pyridinyl]oxy]ethyl]phenyl]butanoic Acid] | – | – | 0.83 | 0.022
12 | CC(Oc1ccc(-c2ccn[nH]2)nc1)c1ccc(C(=O)O)cc1 (stereo not shown) [Example 1-2] | – | – | 42 | 0.25
13 | CC(C)(C(=O)O)c1cccc(OCCOc2ccc(-c3ccn[nH]3)nc2)c1 [Example 24-3] | – | – | 3.2 | 0.06
14 | O=C(O)C12CCC(COc3ccc(-c4ccn[nH]4)nc3)(CC1)CC2 [Example 8-18] | – | – | 16 | 0.052
15 | NS(=O)(=O)c1cccc(C(=O)N2CCC[C@@H](COc3ccc(-c4ccn[nH]4)nc3)C2)c1 [Example 41-1, 3-[Oxo-[(3R)-3-[[6-(1H-pyrazol-5-yl)-3-pyridinyl]oxymethyl]-1-piperidinyl]methyl]benzenesulfonamide] | – | – | 0.59 | 0.25
16 | CS(=O)(=O)NC(=O)c1cccc(COc2ccc(-c3ccn[nH]3)nc2)c1 [Example 44-1, N-Methylsulfonyl-3-[[6-(1H-pyrazol-5-yl)-3-pyridinyl]oxymethyl]benzamide] | 7.5 | 0.049 | – | –
17 | O=C(O)C1CCc2ccc(COc3ccc(-c4[nH]ncc4Cl)nc3)cc2O1 (single isomer, unassigned) [Example 75-7] | 0.02 | 0.0077 | – | –
18 | O=C(O)c1cccc(-c2cccc(COc3ccc(-c4ccn[nH]4)nc3)c2)n1 [Example 18-1, 6-[3-[[6-(1H-Pyrazol-5-yl)-3-pyridinyl]oxymethyl]phenyl]-2-pyridinecarboxylic Acid] | – | – | 0.46 | 0.013
19 | O=C(O)[C@H]1CCCN(C(=O)c2cccc(COc3ccc(-c4ccn[nH]4)nc3)c2)C1 [Example 45-29] | 4.9 | 0.17 | – | –
20 | O=C(O)C1(CCCCCCCCOc2ccc(-c3ccn[nH]3)nc2)CCS(=O)(=O)CC1 [Example 72-6] | 0.0094 | 0.27 | – | –
21 | O=C(NCc1cc(O)no1)c1cccc(COc2ccc(-c3ccn[nH]3)nc2)c1 [Example 45-47] | – | – | 0.97 | 0.19

Row | SMILES | IC50 [1, 3] [µM] | IC50 [2, 4] [µM] | IC50 [1, 5] [µM] | IC50 [2, 6] [µM]
22 | CC(C)(C(=O)O)n1cc(CCCCOc2ccc(-c3ccn[nH]3)nc2)nn1 [Example 35-3] | – | – | 7.4 | 0.29
23 | CC(C)(OCCCCOCCCCOc1ccc(-c2ccn[nH]2)nc1)C(=O)O [Example 9-2] | – | – | 1.1 | 1.8
24 | CC(=O)N1CCC(CCCCCCOc2ccc(-c3ccn[nH]3)nc2)(C(=O)O)C1 (stereo not shown) [Example 3-6] | – | – | 2.7 | 0.81
25 | O=C(O)[C@@H]1COc2ccc(COc3ccc(-c4ccn[nH]4)nc3)cc2C1 [Example 69-2-1] | 0.6 | 0.037 | – | –
26 | CN(C)C(=O)/C=C/c1cccc(COc2ccc(-c3ccn[nH]3)nc2)c1 [Example 42-16] | 0.0057 | 0.21 | – | –
27 | O=C(O)CCS(=O)(=O)c1cccc(COc2ccc(-c3ccn[nH]3)nc2)c1 [Example 14-1, 3-[3-[[6-(1H-Pyrazol-5-yl)-3-pyridinyl]oxymethyl]phenyl]sulfonylpropanoic Acid] | – | – | 2.2 | 0.03
28 | O=C(O)c1ccc(-c2cccc(COc3ccc(-c4ccn[nH]4)nc3)c2)nc1 [Example 18-2] | – | – | 0.23 | 0.012
29 | CN(C)CCNC(=O)CCc1cccc(COc2ccc(-c3ccn[nH]3)nc2)c1 [Example 43-15] | 0.28 | 0.91 | – | –
30 | O=C(N[C@H]1CC[C@@H](C(=O)O)CC1)c1cccc(COc2ccc(-c3ccn[nH]3)nc2)c1 [Example 45-19] | 13 | 1 | – | –
31 | O=C(O)Cc1cccc(COc2ccc(-c3ccn[nH]3)nc2)n1 [Example 8-16] | – | – | 0.68 | 0.75
32 | O=C(O)c1ccnc(-c2cccc(COc3ccc(-c4ccn[nH]4)nc3)c2)c1 [Example 8-10] | – | – | 1.3 | 0.035
33 | CC(C)S(=O)(=O)Nc1cccc(COc2ccc(-c3ccn[nH]3)nc2)c1 [Example 56-1, N-[3-[[6-(1H-Pyrazol-5-yl)-3-pyridinyl]oxymethyl]phenyl]-2-propanesulfonamide] | – | – | 0.45 | 0.14
34 | O=C(CCc1cccc(COc2cnc(-c3ccn[nH]3)c(F)c2)c1)NC1COC1 [Example 42-20] | 0.011 | 0.076 | – | –
35 | CCC(OCCCCCCCOc1ccc(-c2ccn[nH]2)nc1)C(=O)O (stereo not shown) [Example 71-1, 2-[7-[6-(1H-Pyrazol-5-yl)pyridin-3-yl]oxyheptoxy]butanoic Acid] | 0.14 | 0.11 | – | –
36 | O=C(O)C1CC1c1ccc(CCOc2ccc(-c3ccn[nH]3)nc2)cc1 (stereo not shown) [Example 70-9] | 0.2 | 0.21 | – | –
37 | O=C(O)C12CC(C(=O)N3CCC[C@@H](COc4ccc(-c5ccn[nH]5)nc4)C3)(C1)C2 [Example 46-3] | – | – | > 50 | 1.5
38 | O=C(O)CCCCCCOc1ccc(-c2ccn[nH]2)nc1 [Example 22-20, 7-[[6-(1H-Pyrazol-5-yl)-3-pyridinyl]oxy]heptanoic Acid] | – | – | 9.6 | 0.076
39 | O=C(O)c1cnn(-c2cccc(COc3ccc(-c4ccn[nH]4)nc3)c2)c1 [Example 34-3, 1-[3-[[6-(1H-Pyrazol-5-yl)-3-pyridinyl]oxymethyl]phenyl]-4-pyrazolecarboxylic Acid] | – | – | 0.39 | 0.026
40 | O=C(O)COc1ccc(COc2ccc(-c3ccn[nH]3)nc2)cc1 [Example 8-9] | – | – | 6.2 | 0.029
41 | CC(C)(CCCOc1ccc(-c2ccn[nH]2)nc1)CC(=O)O [Example 1-60] | – | – | 31 | 0.038
